For 8 compounds, fold induction results are on record in US10004701B2, “Methods and compositions for treating infection” (UNIVERSITY OF ROCHESTER, priority 2012, dated 2018).

Holding throughout (test): AK assay 384-well format, Prestwick library screening
The test system of assay [1] is K. pneumoniae. Format: cell-based, Klebsiella pneumoniae. The note with it: Klebsiella pneumoniae, 3 h, 50 μM final drug concentration.
The subject of assay [2] is E. faecium. Format: cell-based, Enterococcus faecium. To be noted: Enterococcus faecium, 3 h, 50 μM final drug concentration.
For assay [3], the system named is S. aureus strain USA300-0114. Format: cell-based, Staphylococcus aureus. To be noted: Staphylococcus aureus, USA300, 3 h, 50 μM final drug concentration.
The subject of assay [4] is E. cloacae. Format: cell-based, Enterobacter cloacae. The note with it: Enterobacter cloacae, 3 h, 50 μM final drug concentration.
Assay [5] relates to P. aeruginosa. Format: cell-based, Pseudomonas aeruginosa. To be noted: Pseudomonas aeruginosa, 3 h, 50 μM final drug concentration.
Assay [6] relates to E. coli. Format: cell-based, Escherichia coli. The note with it: Escherichia coli, 3 h, 50 μM final drug concentration.
Assay [7] concerns A. baumannii strain 98-37-09. Format: cell-based, Acinetobacter baumannii. To be noted: Acinetobacter baumannii, 983709, 3 h, 50 μM final drug concentration.
[8] abbreviates: planktonic K. pneumoniae, 384-well, cutoff for positive-scoring molecules 3-fold increase, read-out: AK-based Prestwick Library Screening Results: K. pneumoniae (increase in extracellular AK activity).
The mark [9] stands for this setting: planktonic E. faecium, 384-well, cutoff for positive-scoring molecules 3-fold increase, read-out: AK-based Prestwick Library Screening Results: E. faecium (increase in extracellular AK activity).
Setting [10] is: planktonic S. aureus, 384-well, cutoff for positive-scoring molecules 3-fold increase, read-out: AK-based Prestwick Library Screening Results: S. aureus (increase in extracellular AK activity).
Where [11] appears, read: planktonic E. cloacae, 384-well, cutoff for positive-scoring molecules 3-fold increase, read-out: AK-based Prestwick Library Screening Results: E. cloacae (increase in extracellular AK activity).
[12] abbreviates: planktonic P. aeruginosa, 384-well, cutoff for positive-scoring molecules 3-fold increase, read-out: AK-based Prestwick Library Screening Results: P. aeruginosa (increase in extracellular AK activity).
Where [13] appears, read: planktonic E. coli, 384-well, cutoff for positive-scoring molecules 3-fold increase, read-out: AK-based Prestwick Library Screening Results: E. coli (increase in extracellular AK activity).
Where [14] appears, read: planktonic A. baumannii, 384-well, cutoff for positive-scoring molecules 3-fold increase, read-out: AK-based Prestwick Library Screening Results: A. baumannii (increase in extracellular AK activity).

Counter-ions that a name gives are not always drawn. Like-named read-outs stand apart in the source and are kept apart here.

Take `Cc1ccc(S(=O)(=O)NC(=O)NN2CCCCCC2)cc1` [Tolazamide]: the fold induction at 50 µM worked out at 1.4 in assay [1] (planktonic, cutoff for positive 3-fold increase, read-out: AK-based Prestwick Library Screening Results, K. pneumoniae (fold increase in extracellular AK activity)); 1 in assay [2] (planktonic, cutoff for positive 3-fold increase, read-out: AK-based Prestwick Library Screening Results, E. faecium (fold increase in extracellular AK activity)); 1 in assay [3] (planktonic, cutoff for positive 3-fold increase, read-out: AK-based Prestwick Library Screening Results, S. aureus (fold increase in extracellular AK activity)); 1.6 in assay [4] (planktonic, cutoff for positive 3-fold increase, read-out: AK-based Prestwick Library Screening Results, E. cloacae (fold increase in extracellular AK activity)); 1.4 in assay [5] (planktonic, cutoff for positive 3-fold increase, read-out: AK-based Prestwick Library Screening Results, P. aeruginosa (fold increase in extracellular AK activity)); 1.5 in assay [6] (planktonic, cutoff for positive 3-fold increase, read-out: AK-based Prestwick Library Screening Results, E. coli (fold increase in extracellular AK activity)). In addition, the fold induction at 50 µM in assay [7] (planktonic, cutoff for positive 3-fold increase, read-out: AK-based Prestwick Library Screening Results, A. baumannii (fold increase in extracellular AK activity)) was 1.2.

For the compound `c1ccc(CC2=NCCN2)cc1` [Tolazoline hydrochloride], the fold induction at 50 µM is 1 in assay [1] (setting [8]); 1 in assay [2] (setting [9]); 1.2 in assay [3] (setting [10]); 1.5 in assay [4] (setting [11]); 1.1 in assay [5] (setting [12]); 1.4 in assay [6] (setting [13]). The fold induction at 50 µM in assay [7] (setting [14]) amounted to 1.3.

As to `CCCCNC(=O)NS(=O)(=O)c1ccc(C)cc1` [Tolbutamide], the fold induction at 50 µM worked out at 0.8 in assay [1] (384-well format, cutoff for positive-scoring molecules 3-fold increase, read-out: AK-based Prestwick Library Screening Results, K. pneumoniae (increase in extracellular AK activity)); 1 in assay [2] (384-well format, cutoff for positive-scoring molecules 3-fold increase, read-out: AK-based Prestwick Library Screening Results, E. faecium (increase in extracellular AK activity)); 0.7 in assay [3] (384-well format, cutoff for positive-scoring molecules 3-fold increase, read-out: AK-based Prestwick Library Screening Results, S. aureus (increase in extracellular AK activity)); 1 in assay [4] (384-well format, cutoff for positive-scoring molecules 3-fold increase, read-out: AK-based Prestwick Library Screening Results, E. cloacae (increase in extracellular AK activity)); 0.9 in assay [5] (384-well format, cutoff for positive-scoring molecules 3-fold increase, read-out: AK-based Prestwick Library Screening Results, P. aeruginosa (increase in extracellular AK activity)); 0.8 in assay [6] (384-well format, cutoff for positive-scoring molecules 3-fold increase, read-out: AK-based Prestwick Library Screening Results, E. coli (increase in extracellular AK activity)). In addition, the fold induction at 50 µM in assay [7] (384-well format, cutoff for positive-scoring molecules 3-fold increase, read-out: AK-based Prestwick Library Screening Results, A. baumannii (increase in extracellular AK activity)) is 0.9.

On to `Cc1c(Cl)cccc1Nc1ccccc1C(=O)O` [Tolfenamic acid], for which the fold induction at 50 µM was determined as 0.8 in assay [1] (setting [8]); 1.1 in assay [2] (setting [9]); 0.5 in assay [3] (setting [10]); 1.6 in assay [4] (setting [11]); 1.2 in assay [5] (setting [12]); 1 in assay [6] (setting [13]). For the same compound, the fold induction at 50 µM in assay [7] (setting [14]) was determined as 1.4.

Turning to `Cc1ccc(C(=O)c2ccc(CC(=O)O)n2C)cc1` [Tolmetin sodium salt dihydrate], the fold induction at 50 µM in assay [1] (cutoff for positive-scoring molecules 3-fold increase, read-out: AK-based Prestwick Library Screening Results, K. pneumoniae (fold increase in extracellular AK activity)) came to 0.6; in assay [2] (cutoff for positive-scoring molecules 3-fold increase, read-out: AK-based Prestwick Library Screening Results, E. faecium (fold increase in extracellular AK activity)), 0.8; in assay [3] (cutoff for positive-scoring molecules 3-fold increase, read-out: AK-based Prestwick Library Screening Results, S. aureus (fold increase in extracellular AK activity)), 0.9; in assay [4] (cutoff for positive-scoring molecules 3-fold increase, read-out: AK-based Prestwick Library Screening Results, E. cloacae (fold increase in extracellular AK activity)), 2; in assay [5] (cutoff for positive-scoring molecules 3-fold increase, read-out: AK-based Prestwick Library Screening Results, P. aeruginosa (fold increase in extracellular AK activity)), 1; in assay [6] (cutoff for positive-scoring molecules 3-fold increase, read-out: AK-based Prestwick Library Screening Results, E. coli (fold increase in extracellular AK activity)) it was 0.9. Besides, the fold induction at 50 µM in assay [7] (cutoff for positive-scoring molecules 3-fold increase, read-out: AK-based Prestwick Library Screening Results, A. baumannii (fold increase in extracellular AK activity)) was found to be 0.8.

Take `Cc1cccc(N(C)C(=S)Oc2ccc3ccccc3c2)c1` [Tolnaftate]: the fold induction at 50 µM is 0.9 in assay [1] (setting [8]); 1 in assay [2] (setting [9]); 1.3 in assay [3] (setting [10]); 1.2 in assay [4] (setting [11]); 1 in assay [5] (setting [12]); 1.1 in assay [6] (setting [13]). For the same compound, the fold induction at 50 µM in assay [7] (setting [14]) stood at 1.5.

On to `C[C@H]1CC[C@]2(NC1)O[C@H]1C[C@H]3[C@@H]4CC[C@H]5C[C@@H](O)CC[C@]5(C)[C@H]4CC[C@]3(C)[C@H]1[C@@H]2C` [Tomatidine], for which the fold induction at 50 µM is 0.6 in assay [1] (planktonic K. pneumoniae, […], read-out: AK-based Prestwick Library Screening Results, K. pneumoniae (increase in extracellular AK activity)); 1.2 in assay [2] (planktonic E. faecium, […], read-out: AK-based Prestwick Library Screening Results, E. faecium (increase in extracellular AK activity)); 0.5 in assay [3] (planktonic S. aureus, […], read-out: AK-based Prestwick Library Screening Results, S. aureus (increase in extracellular AK activity)); 1 in assay [4] (planktonic E. cloacae, […], read-out: AK-based Prestwick Library Screening Results, E. cloacae (increase in extracellular AK activity)); 0.7 in assay [5] (planktonic P. aeruginosa, […], read-out: AK-based Prestwick Library Screening Results, P. aeruginosa (increase in extracellular AK activity)); 0.7 in assay [6] (planktonic E. coli, […], read-out: AK-based Prestwick Library Screening Results, E. coli (increase in extracellular AK activity)). Further, the fold induction at 50 µM in assay [7] (planktonic A. baumannii, […], read-out: AK-based Prestwick Library Screening Results, A. baumannii (increase in extracellular AK activity)) is 0.7.

On to `C[C@H]1CC[C@]2(NC1)O[C@H]1C[C@H]3[C@@H]4CC[C@H]5C[C@@H](O[C@@H]6O[C@H](CO)[C@H](O[C@@H]7O[C@H](CO)[C@@H](O)[C@H](O[C@@H]8OC[C@@H](O)[C@H](O)[C@H]8O)[C@H]7O[C@@H]7O[C@H](CO)[C@@H](O)[C@H](O)[C@H]7O)[C@H](O)[C@H]6O)CC[C@]5(C)[C@H]4CC[C@]3(C)[C@H]1[C@@H]2C` [Tomatine], for which the fold induction at 50 µM in assay [1] (384-well format, […], read-out: AK-based Prestwick Library Screening Results, K. pneumoniae (increase in extracellular AK activity)) stood at 0.7; in assay [2] (384-well format, […], read-out: AK-based Prestwick Library Screening Results, E. faecium (increase in extracellular AK activity)) it was 1; in assay [3] (384-well format, […], read-out: AK-based Prestwick Library Screening Results, S. aureus (increase in extracellular AK activity)) it was 0.8; in assay [4] (384-well format, […], read-out: AK-based Prestwick Library Screening Results, E. cloacae (increase in extracellular AK activity)), 1.1; in assay [5] (384-well format, […], read-out: AK-based Prestwick Library Screening Results, P. aeruginosa (increase in extracellular AK activity)), 0.8; in assay [6] (384-well format, […], read-out: AK-based Prestwick Library Screening Results, E. coli (increase in extracellular AK activity)) it was 0.9. For the same compound, the fold induction at 50 µM in assay [7] (384-well format, […], read-out: AK-based Prestwick Library Screening Results, A. baumannii (increase in extracellular AK activity)) was 1.
